pEC50: −log10 of the molar value.
Target: FXR (Homo sapiens (Human), UniProt Q96RI1)
Experiment: FXR EC50 (FXR agonist activity reported with each example)
Assay type: cell-based

FXR, sequence (Q96RI1 262-486): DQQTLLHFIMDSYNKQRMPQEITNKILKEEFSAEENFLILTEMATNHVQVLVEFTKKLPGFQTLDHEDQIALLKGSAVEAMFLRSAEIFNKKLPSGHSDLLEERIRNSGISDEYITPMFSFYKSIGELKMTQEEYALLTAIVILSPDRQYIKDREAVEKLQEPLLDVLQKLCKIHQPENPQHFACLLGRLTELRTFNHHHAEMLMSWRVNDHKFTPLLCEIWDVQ

## COc1cncc(Cl)c1-c1noc(C2CC2)c1COC12CCC(COc3ccc4cc(C(=O)O)cc(C5CC5)c4n3)(CC1)CC2 [Example 351, 2-((4-((3-(3-chloro-5-methoxypyridin-4-yl)-5-cyclopropylisoxazol-4-yl)methoxy)bicyclo[2.2.2]octan-1-yl)methoxy)-8-cyclopropylquinoline-6-carboxylic acid]
  pEC50: 7.64

## O=C(O)c1ccc(C#CC23CCC(OCc4c(-c5c(Cl)cncc5Cl)noc4C4CC4)(CC2)CC3)c2ncccc12 [Example 412]
  pEC50: 8.00

## O=C(O)c1cncc(OCC23CCC(OCc4c(-c5c(Cl)cccc5Cl)noc4C4CC4)(CC2)CC3)c1 [Example 109, 5-((4-((5-cyclopropyl-3-(2,6-dichlorophenyl)isoxazol-4-yl)methoxy)bicyclo[2.2.2]octan-1-yl)methoxy)nicotinic acid]
  pEC50: 6.82

## COc1cc(C#CC23CCC(OCc4c(-c5c(Cl)cncc5Cl)noc4C4CC4)(CC2)CC3)cc(C(=O)O)c1 [Example 380]
  pEC50: 7.62

## COc1ccc(-c2noc(C34CCC(OCc5c(-c6c(Cl)cnn6C)noc5C5CC5)(CC3)CC4)n2)cc1C(=O)O [Example 273, 5-(5-(4-((3-(4-chloro-1-methyl-1H-pyrazol-5-yl)-5-cyclopropylisoxazol-4-yl)methoxy)bicyclo[2.2.2]octan-1-yl)-1,2,4-oxadiazol-3-yl)-2-methoxybenzoic acid]
  pEC50: 5.48

## O=C(O)c1cc(F)c2nc(C(O)C34CCC(OCc5c(-c6c(Cl)cccc6Cl)noc5C5CC5)(CC3)CC4)sc2c1 (centres unmarked) [Example 122, 2-((4-((5-cyclopropyl-3-(2,6-dichlorophenyl)isoxazol-4-yl)methoxy)bicyclo[2.2.2]octan-1-yl)(hydroxy)methyl)-4-fluorobenzo[d]thiazole-6-carboxylic acid]
  pEC50: 6.00

## O=C(O)c1cc(OCC2CC2)c2cc(OCC34CCC(OCc5c(-c6c(Cl)cncc6Cl)noc5C5CC5)(CC3)CC4)c(F)cc2n1 [Example 314, 6-((4-((5-cyclopropyl-3-(3,5-dichloropyridin-4-yl)isoxazol-4-yl)methoxy)bicyclo[2.2.2]octan-1-yl)methoxy)-4-(cyclopropylmethoxy)-7-fluoroquinoline-2-carboxylic acid]
  pEC50: 7.17

## O=C(O)c1cccc2nc(C34CCC(C=Cc5c(-c6ccccc6OC(F)(F)F)noc5C5CC5)(CC3)CC4)sc12 [Example 183]
  pEC50: 7.89

## OCc1noc(C23CCC(OCc4c(-c5c(Cl)cccc5Cl)noc4C4CC4)(CC2)CC3)n1 [Example 73, (5-(4-((5-cyclopropyl-3-(2,6-dichlorophenyl)isoxazol-4-yl)methoxy)bicyclo[2.2.2]octan-1-yl)-1,2,4-oxadiazol-3-yl)methanol]
  pEC50: 6.22

## O=C(O)c1cnc(C#CC23CCC(OCc4c(-c5c(Cl)cncc5Cl)noc4C4CC4)(CC2)CC3)cc1C(F)(F)F [Example 374]
  pEC50: 6.89

## Clc1cccc(Cl)c1-c1noc(C2CC2)c1COC12CCC(c3nc4ccc(-c5nnn[nH]5)cc4s3)(CC1)CC2 [Example 66, 4-(((4-(6-(1H-tetrazol-5-yl)benzo[d]thiazol-2-yl)bicyclo[2.2.2]octan-1-yl)oxy)methyl)-5-cyclopropyl-3-(2,6-dichlorophenyl)isoxazole]
  pEC50: 6.41

## O=C(O)c1cccc2nc(C34CCC(OCc5c(-c6c(Cl)cncc6Cl)noc5C5CC5)(CC3)CC4)ccc12 [Example 368]
  pEC50: 7.44

## CC(C)Oc1cc(C(=O)O)cc(-c2noc(C34CCC(OCc5c(-c6c(Cl)cncc6Cl)noc5C5CC5)(CC3)CC4)n2)c1 [Example 251, 3-(5-(4-((5-cyclopropyl-3-(3,5-dichloropyridin-4-yl)isoxazol-4-yl)methoxy)bicyclo[2.2.2]octan-1-yl)-1,2,4-oxadiazol-3-yl)-5-isopropoxybenzoic acid]
  pEC50: 7.80

## NC(=O)C12CCC(COCc3c(-c4c(Cl)cccc4Cl)noc3C3CC3)(CC1)CC2 [Intermediate 162C, 4-(((5-cyclopropyl-3-(2,6-dichlorophenyl)isoxazol-4-yl)methoxy)methyl)bicyclo[2.2.2]octane-1-carboxamide]
  pEC50: 6.74

From patent US10730863B2, “Bridged bicyclic compounds as farnesoid X receptor modulators” (BRISTOL-MYERS SQUIBB COMPANY, priority 2017, dated 2020)
